Data: EP3345917A1, “ANTIPROTOZOAL COMPOUNDS” (Bacoba AG, priority 2017, dated 2018)
Like-named read-outs stand apart in the source and are kept apart here. Blank lines part the entries; values can stand above or below the molecule they belong to. Non-standard residues stand in square brackets, D forms with d. Residues, ends and D or L forms follow the SMILES beside them. *: point of attachment. Hexenoyl(2E,4S-Me) = CC[C@H](C)/C=C/C(=O)*; Leu(3R-OH) = CC(C)[C@@H](O)[C@H](N)C(=O)O; NH((S)CH(Me)CH2NMe2) = C[C@@H](CN(C)C)N*; NH(1-CH2NMe2-cBu) = CN(C)CC1(N*)CCC1; Gly(octyl) = CCCCCCCC[C@H](N)C(=O)O; Oxazole4CO(2-Me) = Cc1nc(C(=O)*)co1; X3 = O=C(c1coc(-c2ccccc2)n1)*; Morpholide = C1CN(*)CCO1; X25 = CN(C)CC1(N*)CCCC1; Aib = CC(C)(N)C(=O)O; βAla = NCCC(=O)O

Columns and labels:
[1] = Cytotoxicity assay on L6-cells (Alamar Blue); conditions: rat, Cytotox L6, Cytotoxicity against rat myoblast cells (L6)
[2] = test system: Trypanosoma cruzi trypomastigote forms (Tulahuen strain); experiment: Intracellular Trypanosoma cruzi assay in L6-cells, beta-galactosidase/CPRG readout; assay type: cell-based
Description: (§1) Tests were done in triplicate.
Trypanosoma cruzi trypomastigote forms (Tulahuen strain C2C4 containing β-galactosidase (Lac Z) gene) were cultured as described by Buckner et al. (Buckner FS et al. Antimicrob Agents Ch1996; 40: 2592-2597) in rat myoblast cells (L6-cells). […] After incubation, the substrate chlorophenyl red β-D-galactopyranoside agent CPRG/Nonident was added to all wells and a color change was developed within 2 to 6 h. The plates were read photometrically at 540 nm (Molecular Devices). Data were evaluated and IC50 values calculated using Softmax Pro software (Molecular Devices).

[3] = test system: Axenically grown Leishmania donovani amastigotes (strain MHOM/ET/67/L82); experiment: Axenic Leishmania donovani amastigote resazurin assay; assay type: cell-based
Description: as §1
Axenically grown Leishmania donovani amastigotes (strain MHOM/ET/67/L82) were grown and tests were done as previously described using the resazurin assay (Räz B et al. Acta Tropica 1997, 68:139-147). The plates were developed for 2-4 hours and read on a Spectramax Gemini XS micro plate fluorometer (Molecular Devices Cooperation) using an excitation wavelength of 536 nm and emission wavelength of 588 nm. Fluorescence development was measured and expressed as percentage of the negative control. […] Data were transferred to the graphic programme Softmax Pro (Molecular Devices), with which IC50 values were calculated.

[4] = test system: Trypanosoma brucei rhodesiense (STIB 900 strain); experiment: Alamar Blue assay against Trypanosoma brucei rhodesiense grown in axenic medium; assay type: cell-based
Description: as §1
Trypanosoma brucei rhodesiense (STIB 900) were grown in axenic medium as described by Baltz et al. (1985) The samples were tested using the Alamar Blue assay protocol (Baltz T et al. EMBO J 1985; 4:1273-1277) to determine the 50% inhibitory concentration (IC50). […] Melarsoprol (Arsobal®, Sanofi-Aventis, Switzerland) was used as a reference drug (IC50= 0.03 ± 0.01 µM). Its purity was over 95 %, as was certified by the supplier. The IC50 values were calculated by using Softmax Pro software (Molecular Devices Cooperation, Sunnyvale, CA).

[5] = In vitro inhibition, read-out: T.cruzi.
[6] = In vitro inhibition, read-out: L.don. ax
[7] = In vitro inhibition, read-out: T.b.rhod.

Compound: CCCCCCCC[C@H](NC(=O)[C@@H]1CCCN1C(=O)c1coc(-c2ccccc2)n1)C(=O)N[C@@H](CC(C)C)C(=O)NC(C)(C)C(=O)N[C@@H](CC(C)C)C(=O)N[C@@H](CC(C)C)C(=O)NC(C)(C)C(=O)NC(C)(C)C(=O)NCCC(=O)N[C@@H](C)CN(C)C [Compound 5906, (2S)-N-[(1S)-1-[(1-{[(1S)-1-{[(1S)-1-{[1-({1-[(2-{[(2S)-1-(dimethylamino)propan-2-yl]carbamoyl}ethyl)carbamoyl]-1-methylethyl}carbamoyl)-1-methylethyl]carbamoyl}-3-methylbutyl]carbamoyl}-3-methylbutyl]carbamoyl}-1-methylethyl)carbamoyl]-3-methylbutyl]-2-{[(2S)-1-(2-phenyl-1,3-oxazole-4-carbonyl)pyrrolidin-2-yl]formamido}decanamide] (X3-P[Gly(octyl)]L[Aib]LL[Aib][Aib][βAla]-{NH((S)CH(Me)CH2NMe2)})
IC50 at 70 h [1]: 445 nM

Compound: CCCCCCCC[C@H](NC(=O)[C@@H]1CCCN1C(=O)c1coc(C)n1)C(=O)N[C@@H](CC(C)C)C(=O)NC(C)(C)C(=O)N[C@@H](CC(C)C)C(=O)N[C@@H](CC(C)C)C(=O)NC(C)(C)C(=O)NC(C)(C)C(=O)NCCC(=O)NC1(CN(C)C)CCCC1 [Compound 6254, (2S)-N-[(1S)-1-[(1-{[(1S)-1-{[(1S)-1-({1-[(1-{[2-({1-[(dimethylamino)methyl]cyclopentyl}carbamoyl)ethyl]carbamoyl}-1-methylethyl)carbamoyl]-1methylethyl}carbamoyl)-3-methylbutyl]carbamoyl}-3-methylbutyl]carbamoyl}-1-methylethyl)carbamoyl]-3-methylbutyl]-2-{[(2S)-1-(2-methyl-1,3-oxazole-4-carbonyl)pyrrolidin-2-yl]formamido}decanamide] ({Oxazole4CO(2-Me)}-P[Gly(octyl)]L[Aib]LL[Aib][Aib][βAla]-X25)
IC50 [2, 5]: 34.6 nM | IC50 [3, 6]: 13.9 µM | IC50 [4, 7]: < 0.8 nM

Compound: CCCCCCCC[C@H](NC(=O)[C@@H]1CCCN1C(=O)/C=C/[C@@H](C)CC)C(=O)N[C@H](C(=O)NC(C)(C)C(=O)N[C@@H](CC(C)C)C(=O)N[C@@H](CC(C)C)C(=O)NC(C)(C)C(=O)NC(C)(C)C(=O)NCCC(=O)N1CCOCC1)[C@H](O)C(C)C [Compound 5572] ({Hexenoyl(2E,4S-Me)}-P[Gly(octyl)][Leu(3R-OH)][Aib]LL[Aib][Aib][βAla]-Morpholide)
IC50 at 70 h [1]: 1420 nM

Compound: O=C(Cn1ccnc1[N+](=O)[O-])NCc1ccccc1 [Benznidazol]
IC50 ([2]; TULAHUEN, In vitro inhibition, intracellular Trypanosoma cruzi, read-out: T.cruzi.): 2080 nM

Compound: O=C(Cn1ccnc1[N+](=O)[O-])NCc1ccccc1 [Benznidazole, benznidazole]
IC50 ([2]; Trypanosoma cruzi, standard drug, T. cruzi Tulahuen C2C4 in L6-cells, read-out: IC50): 0.48 µg/mL

IC50 ([3]; Leishmania donovani, reference drug, axenic L. donovani amastigotes, resazurin assay, read-out: IC50): 0.241 µg/mL
Compound: CCCCCCCCCCCCCCCCOP(=O)([O-])OCC[N+](C)(C)C [Miltfosine]

Compound: CCCCCCCC[C@H](NC(=O)[C@@H]1CCCN1C(=O)c1coc(C)n1)C(=O)N[C@@H](CC(C)C)C(=O)NC(C)(C)C(=O)N[C@@H](CC(C)C)C(=O)N[C@@H](CC(C)C)C(=O)NC(C)(C)C(=O)NC(C)(C)C(=O)NCCC(=O)NC1(CN(C)C)CCC1 [Compound 6253, (2S)-N-[(1S)-1-[(1-{[(1S)-1-{[(1S)-1-({1-[(1-{[2-({1-[(dimethylamino)methyl]cyclobutyl}carbamoyl)ethyl]carbamoyl}-1-methylethyl)carbamoyl]-1-methylethyl}carbamoyl)-3-methylbutyl]carbamoyl}-3-methylbutyl]carbamoyl}-1-methylethyl)carbamoyl]-3-methylbutyl]-2-{[(2S)-1-(2-methyl-1,3-oxazole-4-carbonyl)pyrrolidin-2-yl]formamido}decanamide] ({Oxazole4CO(2-Me)}-P[Gly(octyl)]L[Aib]LL[Aib][Aib][βAla]-{NH(1-CH2NMe2-cBu)})
IC50 [2, 5]: 68.4 nM | IC50 [3, 6]: 46.8 µM | IC50 [4, 7]: < 0.9 nM

Compound: Nc1nc(N)nc(Nc2ccc([As]3SCC(CO)S3)cc2)n1 (stereo not shown) [Melarsoprol, melarsoprol]
IC50 ([4]; read-out: T.b.rhod.): 7 nM | IC50 ([4]; reference drug, T. b. rhodesiense STIB 900, Alamar Blue, read-out: IC50): 30 ± 10 nM
